Calls of active or inactive are those of the source. The calls are words filed in the database; no cut-off is given here.
Columns and labels:
[1] = Reduction of viability of mouse […] cells after 48 hrs; type: cell-based
J744 [2] = assay: Inhibition of RGGT mediated Rap1A prenylation in […] cells; type: cell-based; conditions: Mus musculus
[3] = Bone mineral affinity on hydroxyaptite assessed as retention time by chromatography; type: functional
[4] = molecular target: T1, Farnesyl pyrophosphate synthase (Homo sapiens, UniProt P14324); assay: Inhibition of human cloned FPPS expressed in Escherichia col […]
T1 sequence (P14324 whole entry): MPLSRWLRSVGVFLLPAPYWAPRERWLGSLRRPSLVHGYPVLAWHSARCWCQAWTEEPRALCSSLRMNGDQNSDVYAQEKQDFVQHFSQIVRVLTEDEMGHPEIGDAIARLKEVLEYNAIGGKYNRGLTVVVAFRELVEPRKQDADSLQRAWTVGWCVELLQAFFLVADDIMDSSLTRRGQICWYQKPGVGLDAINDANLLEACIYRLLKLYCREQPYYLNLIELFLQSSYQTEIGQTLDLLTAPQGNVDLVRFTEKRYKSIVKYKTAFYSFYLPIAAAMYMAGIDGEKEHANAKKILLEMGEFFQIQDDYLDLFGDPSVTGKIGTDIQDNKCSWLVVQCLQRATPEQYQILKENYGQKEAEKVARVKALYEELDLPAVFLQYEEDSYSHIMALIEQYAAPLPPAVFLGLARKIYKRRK

[5] = Inhibition of RGGT; design: species or system Homo sapiens
J744 [6] = assay: Inhibition of RGGT mediated Rab11 prenylation in […] cells; type: cell-based; conditions: Mus musculus

Row | SMILES | IC50 [1] [µM] | MED (J744 [2]) [µM] | TIME [3] [h] | IC50 [4] [µM] | IC50 [5] [µM] | MED (J744 [6]) [µM] | Activity [3]
1 | O=P(O)(O)C(O)(Cc1cccnc1)P(=O)(O)O [RISEDRONIC ACID] | 31 | 12 | 0.166 | – | – | – | –
2 | O=P(O)(O)C(Cl)(Cc1cccnc1)P(=O)(O)O | 679 | 400 | 0.101 | 0.0946 | – | – | –
3 | O=C(O)[C@@](O)(Cc1cccnc1)P(=O)(O)O | 2.3 | – | 0.0767 | 254 | 24.1 | 62 | –
4 | O=C(O)C(Br)(Cc1cccnc1)P(=O)(O)O (stereo not drawn) | 5.5 | – | – | > 60 | 17.7 | 125 | inactive
5 | O=P(O)(O)C(Br)(Cc1cccnc1)P(=O)(O)O | 673 | 400 | 0.0955 | 0.34 | – | – | –
6 | O=C(O)C(Cl)(Cc1cccnc1)P(=O)(O)O (stereo not drawn) | 5 | – | – | > 600 | 16.4 | 125 | inactive
7 | O=P(O)(O)C(F)(Cc1cccnc1)P(=O)(O)O | 140 | 100 | 0.0988 | 0.0164 | – | – | –
8 | O=P(O)(O)C(Cc1cccnc1)P(=O)(O)O | 212 | 50 | 0.0972 | 0.0342 | – | – | –
9 | O=C(O)C(Cc1cccnc1)P(=O)(O)O (stereo not drawn) | 2.6 | – | – | – | 35.3 | 62 | inactive
10 | O=C(O)C(F)(Cc1cccnc1)P(=O)(O)O (stereo not drawn) | 1.8 | – | – | > 600 | 16.3 | 31 | inactive
